These results are taken from patent publication US6545043B1 (priority 1997, dated 2003).

≈ marks a conversion by molar mass, not a printed value. Where “and” joins values, the source holds several entries; their conditions need not be identical. Equal values may be shown once.

Series [1] deals with soybean cyst nematode (SCN) (Heterodera glycines) eggs. The note with it: in vivo.
In series [2] the test system is lesser grain borer (Rhizopertha dominica). The following applies: in vivo.
The subject of series [3] is brine shrimp (Artemia franciscana). Put plainly: whole plant or invertebrate. The following applies: 24 h, read-out: % Mortality at 1 ppm.
The test system of series [4] is adult house fly (Musca domestica). The note with it: in vivo.
The test system of series [5] is yellow fever mosquito (Aedes aegypti) larvae. In words: whole plant or invertebrate. The following applies: 24 h, read-out: % mortality at 1 ppm.
Series [6] relates to brine shrimp (Artemia franciscana). The following applies: in vivo.
For series [7], the system named is adult house fly (Musca domestica). In words: whole plant or invertebrate. The following applies: topical, 24 h, read-out: Percentage mortality at 24 h.

A word on the mortality: it is the percentage killed. The term LC50 denotes the concentration lethal to half of the exposed cells or organisms. Low values mean a more lethal substance, high ones a less lethal substance. Take `C=CC(O)CC#N` (centres unmarked) [CHB, 1-cyano-2-hydroxy-3-butene]: in series [1], the “[…] HATCH” value is −70% and −73%. In addition, the “times less effective than dichlorvos” value in series [2] was “about 68 times”. Further, in series [3], the mortality at 1 ppm worked out at 13%. Also, the 50% lethal concentration (LC50) in series [4] is 6.2 µg/mL (≈ 63.8 µM). For the same molecule, in series [5], the mortality at 1 ppm is 17%. Further, in series [6], the “effectiveness as aquatic pesticide” value is “very weak”. Also, in series [7], the mortality at 10.7 µg/fly was determined as 0% and the mortality at 107 µg/fly is 55%.
